Data published in ChEMBL document CHEMBL2390840, “An analysis of the synthetic tryptamines AMT and 5-MeO-DALT: emerging 'Novel Psychoactive Drugs'” (Bioorg Med Chem Lett, 2013).

Experiments:
[1] = biological target: Sodium-dependent dopamine transporter (Homo sapiens, UniProt Q01959); assay type: cell-based, HEK293
[2] = biological target: Sodium-dependent noradrenaline transporter (Homo sapiens, UniProt P23975); test: Inhibition of [3H]norepinephrine uptake at human NET expressed in HEK293 cells preincubated for 10 mins prior to substrate addition measured after 4 mins by […]; assay type: cell-based
Sodium-dependent noradrenaline transporter, sequence (P23975 whole entry): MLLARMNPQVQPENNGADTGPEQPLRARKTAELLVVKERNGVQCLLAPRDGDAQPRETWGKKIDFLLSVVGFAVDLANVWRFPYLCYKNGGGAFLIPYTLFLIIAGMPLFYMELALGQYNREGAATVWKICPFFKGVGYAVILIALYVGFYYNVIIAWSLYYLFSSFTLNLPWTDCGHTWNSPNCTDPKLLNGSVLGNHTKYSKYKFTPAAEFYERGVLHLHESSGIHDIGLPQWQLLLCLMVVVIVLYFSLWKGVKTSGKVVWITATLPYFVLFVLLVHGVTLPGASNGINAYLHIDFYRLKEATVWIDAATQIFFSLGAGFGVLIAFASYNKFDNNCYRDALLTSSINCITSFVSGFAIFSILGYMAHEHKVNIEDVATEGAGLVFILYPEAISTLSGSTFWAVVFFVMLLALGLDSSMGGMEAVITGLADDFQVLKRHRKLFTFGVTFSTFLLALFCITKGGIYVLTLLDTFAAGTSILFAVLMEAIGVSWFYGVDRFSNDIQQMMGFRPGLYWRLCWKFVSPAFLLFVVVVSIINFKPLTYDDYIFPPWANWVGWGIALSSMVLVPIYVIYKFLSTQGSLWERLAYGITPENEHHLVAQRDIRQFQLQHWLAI

[3] = biological target: Sodium-dependent serotonin transporter (Homo sapiens, UniProt P31645); assay type: cell-based, HEK293
Sodium-dependent serotonin transporter, sequence (P31645 whole entry): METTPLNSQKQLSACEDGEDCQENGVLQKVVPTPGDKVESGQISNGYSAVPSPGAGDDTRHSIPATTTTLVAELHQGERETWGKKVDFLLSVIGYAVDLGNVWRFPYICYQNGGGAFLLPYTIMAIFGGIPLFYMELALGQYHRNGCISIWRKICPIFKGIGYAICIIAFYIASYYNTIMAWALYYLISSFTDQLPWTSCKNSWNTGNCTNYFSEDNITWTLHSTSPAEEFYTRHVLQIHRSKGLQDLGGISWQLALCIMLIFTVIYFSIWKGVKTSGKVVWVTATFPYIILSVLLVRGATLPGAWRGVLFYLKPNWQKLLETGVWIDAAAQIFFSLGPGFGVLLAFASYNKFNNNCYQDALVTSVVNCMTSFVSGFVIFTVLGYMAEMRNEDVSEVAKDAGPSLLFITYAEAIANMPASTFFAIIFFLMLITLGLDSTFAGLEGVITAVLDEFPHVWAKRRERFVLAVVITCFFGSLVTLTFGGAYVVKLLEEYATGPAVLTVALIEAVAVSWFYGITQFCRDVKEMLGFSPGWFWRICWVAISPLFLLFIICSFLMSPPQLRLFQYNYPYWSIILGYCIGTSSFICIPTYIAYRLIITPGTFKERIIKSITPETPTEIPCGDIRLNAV

Sodium-dependent dopamine transporter, sequence (Q01959 whole entry): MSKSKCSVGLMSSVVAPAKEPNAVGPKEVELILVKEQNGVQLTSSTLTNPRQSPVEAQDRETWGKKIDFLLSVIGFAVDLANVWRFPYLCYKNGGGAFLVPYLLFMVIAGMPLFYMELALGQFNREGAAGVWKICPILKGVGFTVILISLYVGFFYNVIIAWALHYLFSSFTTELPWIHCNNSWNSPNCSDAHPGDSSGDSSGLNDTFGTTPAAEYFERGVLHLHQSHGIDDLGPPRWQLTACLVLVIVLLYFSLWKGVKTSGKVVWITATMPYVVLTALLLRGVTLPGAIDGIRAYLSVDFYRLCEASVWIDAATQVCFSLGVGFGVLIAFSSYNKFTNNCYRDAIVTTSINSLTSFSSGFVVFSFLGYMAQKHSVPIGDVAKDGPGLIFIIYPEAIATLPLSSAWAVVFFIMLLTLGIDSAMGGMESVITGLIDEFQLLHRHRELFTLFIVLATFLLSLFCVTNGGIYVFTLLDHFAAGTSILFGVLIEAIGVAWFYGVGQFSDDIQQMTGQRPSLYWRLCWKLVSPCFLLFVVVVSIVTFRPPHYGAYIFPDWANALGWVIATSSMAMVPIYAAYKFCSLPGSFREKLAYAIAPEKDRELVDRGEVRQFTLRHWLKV

Row | Compound | IC50 [1] | Ki [1] | IC50 [2] | Ki [2] | IC50 [3] | Ki [3]
1 | CN(C)CCC=C1c2ccccc2CCc2ccccc21 [AMITRIPTYLINE] | 12600 nM | 6200 nM |  |  |  | 
2 | CC(N)Cc1ccc2c(c1)OCO2 (single isomer, unassigned; (-)) [TENAMFETAMINE] | 6170 nM | 2420 nM | 3160 nM | 704 nM | 6760 nM | 2310 nM
3 | CN[C@@H](C)Cc1ccc2c(c1)OCO2 (single isomer, unassigned; (+)) [MIDOMAFETAMINE] | 2400 nM | 897 nM | 2000 nM |  | 2750 nM | 
